The values that follow come from ChEMBL document CHEMBL5365419, “Identification of a Protein Arginine Methyltransferase 7 (PRMT7)/Protein Arginine Methyltransferase 9 (PRMT9) Inhibitor” (J Med Chem, 2023).

Calls of active or inactive are those of the source. No cut-off for these calls is given here.

In assay [1] the target is T1, Histone-lysine N-methyltransferase SETD7 (Homo sapiens) (UniProt Q8WTS6).
T1 sequence (whole entry): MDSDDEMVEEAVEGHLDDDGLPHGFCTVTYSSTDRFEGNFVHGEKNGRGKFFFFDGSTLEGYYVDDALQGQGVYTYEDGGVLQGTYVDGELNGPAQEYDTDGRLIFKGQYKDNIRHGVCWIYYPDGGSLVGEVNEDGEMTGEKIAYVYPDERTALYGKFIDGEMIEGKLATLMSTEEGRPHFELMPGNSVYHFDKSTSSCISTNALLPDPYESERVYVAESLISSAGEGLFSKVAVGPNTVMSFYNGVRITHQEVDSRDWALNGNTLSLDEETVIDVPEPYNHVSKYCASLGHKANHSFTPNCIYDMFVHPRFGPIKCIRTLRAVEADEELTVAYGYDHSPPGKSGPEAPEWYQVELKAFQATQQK
The experiment in a line: Inhibition of N-terminal/C-terminal His/GST-tagged human recombinant SET7/9 (2 to 366 residues) at higher concentration using core histone as substrate and 3H-SAM as cosubstrate incubated for 60 mins by scintillation counter analysis.

For a further assay, the species on record is Homo sapiens. In words: Inhibition of N-terminal/C-terminal His-tagged human recombinant MLL1 (3745 to 3969 residues)/WDR5 (22 to 334 residues)/RbBP5 (1 to 538 residues)/ASH2L (2 to 534 residues)/DPY-30 (1 to 99 residues) complex at higher concentration using oligo nucleosomes as substrate and 3H-SAM as cosubstrate incubated for 60 mins by scintillation counter analysis.

The target of assay [2] is T2, Histone-lysine N-methyltransferase EHMT2 (Homo sapiens) (UniProt Q96KQ7).
T2 sequence (whole entry): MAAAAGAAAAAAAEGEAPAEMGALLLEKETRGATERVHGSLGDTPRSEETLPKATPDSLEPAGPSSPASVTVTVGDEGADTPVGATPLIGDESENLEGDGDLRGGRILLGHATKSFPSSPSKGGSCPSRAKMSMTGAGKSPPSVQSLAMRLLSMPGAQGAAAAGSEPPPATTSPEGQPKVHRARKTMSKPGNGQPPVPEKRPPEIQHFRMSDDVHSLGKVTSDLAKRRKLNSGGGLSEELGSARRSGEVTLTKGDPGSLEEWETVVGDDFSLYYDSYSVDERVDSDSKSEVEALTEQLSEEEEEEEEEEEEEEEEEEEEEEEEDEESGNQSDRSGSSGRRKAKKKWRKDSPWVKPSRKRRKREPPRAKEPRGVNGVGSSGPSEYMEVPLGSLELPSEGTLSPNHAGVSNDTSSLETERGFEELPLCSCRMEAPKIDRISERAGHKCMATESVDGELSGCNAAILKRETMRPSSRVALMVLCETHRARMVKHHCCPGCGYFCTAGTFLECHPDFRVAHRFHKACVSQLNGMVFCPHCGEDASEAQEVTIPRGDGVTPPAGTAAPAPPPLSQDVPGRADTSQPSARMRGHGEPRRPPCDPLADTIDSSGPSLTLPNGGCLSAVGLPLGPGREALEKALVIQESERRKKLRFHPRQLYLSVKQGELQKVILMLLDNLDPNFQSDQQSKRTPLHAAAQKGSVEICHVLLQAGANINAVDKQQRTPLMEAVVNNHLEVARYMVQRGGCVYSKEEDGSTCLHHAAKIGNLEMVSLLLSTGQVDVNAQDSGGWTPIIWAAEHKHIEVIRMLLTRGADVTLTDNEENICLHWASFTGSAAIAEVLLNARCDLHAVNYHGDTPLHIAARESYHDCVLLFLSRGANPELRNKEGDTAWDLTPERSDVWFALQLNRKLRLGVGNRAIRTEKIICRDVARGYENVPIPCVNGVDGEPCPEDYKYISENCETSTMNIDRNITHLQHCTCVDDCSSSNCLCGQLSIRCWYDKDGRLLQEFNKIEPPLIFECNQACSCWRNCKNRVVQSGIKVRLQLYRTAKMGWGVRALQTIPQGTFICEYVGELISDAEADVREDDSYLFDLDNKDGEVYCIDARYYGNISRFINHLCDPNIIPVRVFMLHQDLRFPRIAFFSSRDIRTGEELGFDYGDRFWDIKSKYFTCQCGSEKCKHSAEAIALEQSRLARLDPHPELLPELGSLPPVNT
The experiment in a line: Inhibition of N-terminal/C-terminal His-tagged human recombinant G9a (913 to 1193 residues) at higher concentration using histone H3 (1 to 21 residues) as substrate and 3H-SAM as cosubstrate incubated for 60 mins by scintillation counter analysis.

For assay [3], the target named is T3, Protein arginine N-methyltransferase 7 (Homo sapiens) (UniProt Q9NVM4).
T3 sequence (whole entry): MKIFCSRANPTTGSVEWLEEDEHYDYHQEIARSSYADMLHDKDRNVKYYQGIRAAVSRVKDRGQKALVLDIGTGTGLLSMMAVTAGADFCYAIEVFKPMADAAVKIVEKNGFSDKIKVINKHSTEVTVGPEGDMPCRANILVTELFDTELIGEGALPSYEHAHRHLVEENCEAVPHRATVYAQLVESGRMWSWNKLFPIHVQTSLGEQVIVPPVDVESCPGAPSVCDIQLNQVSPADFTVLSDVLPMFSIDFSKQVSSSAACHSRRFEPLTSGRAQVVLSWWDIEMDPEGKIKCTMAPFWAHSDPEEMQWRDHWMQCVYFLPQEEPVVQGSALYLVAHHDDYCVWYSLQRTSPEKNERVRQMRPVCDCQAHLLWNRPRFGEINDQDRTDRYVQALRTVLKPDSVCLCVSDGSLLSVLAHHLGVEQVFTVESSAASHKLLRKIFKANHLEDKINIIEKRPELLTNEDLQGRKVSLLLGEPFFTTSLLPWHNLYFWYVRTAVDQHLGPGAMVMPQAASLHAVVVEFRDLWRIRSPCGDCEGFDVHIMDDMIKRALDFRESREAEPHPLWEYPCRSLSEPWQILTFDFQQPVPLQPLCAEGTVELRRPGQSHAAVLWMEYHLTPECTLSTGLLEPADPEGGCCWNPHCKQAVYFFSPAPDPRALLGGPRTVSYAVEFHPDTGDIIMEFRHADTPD
The experiment in a line: Inhibition of PRMT7 catalysed methylation of HNRNPA1 at R194 residue in HEK293T cells assessed as increase in ratio of abundance of unmethylated over methylated peptides at 10 to 50 uM measured after 24 to 48 hrs by UHPLC- MS/MS analysis. Type of assay: cell-based. The following applies: dose 10-50 µM, time 24-48 hrs.

In assay [4] the target is T3, Protein arginine N-methyltransferase 7 (Homo sapiens). The experiment in a line: Inhibition of PRMT7 catalysed methylation of HNRNPA1 at R194 residue in HEK293T cells assessed as increase in ratio of abundance of unmethylated over methylated peptides measured after 24 to 48 hrs by UHPLC- MS/MS analysis. Type of assay: cell-based. The note with it: dose 10-50 µM, time 24-48 hrs.

The target is the same in assay [5]. In words: Inhibition of PRMT7 catalysed methylation of HNRNPA1 at R194 residue in HEK293T cells assessed as increase in ratio of abundance of unmethylated over methylated peptides at 10 to 50 uM by UHPLC- MS/MS analysis. It counts as cell-based. The following applies: dose 10-50 µM, time 24-48 hrs, TDE = time-dependent effect.

For the molecule `COC(=O)c1cc(O)c2cc(NC(=O)NCCCNC(=N)NC[C@H]3O[C@@H](n4cnc5c(N)ncnc54)[C@H](O)[C@@H]3O)cc(C(F)(F)F)c2c1`, the inhibition entry (in assay [1]; in the assay listed under Homo sapiens; in assay [2]) was “inactive” each time. The inhibition entry in assay [3] is “Active”. Besides, the inhibition entry in assay [4] is “Dose-Dependent Effect”; in assay [5], “Tde”.
